In PubChem BioAssay (NCI):
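48-hour exposure; five concentrations; linearly interpolated endpoints. GI50 is the concentration that inhibits growth by half. TGI is the concentration that stops growth completely.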

Tests used:
Assay in all cases: growth of human tumour cells (NCI), 48 h
NCI-H23 lung = test system: NCI-H23 lung
NCI-H460 lung = test system: NCI-H460 lung
UACC-62 melanoma = test system: UACC-62 melanoma
K-562 leukemia = test system: K-562 leukemia
HOP-92 NSCLC = test system: HOP-92 NSCLC
OVCAR-3 ovarian = test system: OVCAR-3 ovarian
HCT-116 colon = test system: HCT-116 colon
SK-OV-3 ovarian = test system: SK-OV-3 ovarian
RXF 393 renal = test system: RXF 393 renal
SF-268 CNS = test system: SF-268 CNS
IGROV1 ovarian = test system: IGROV1 ovarian
EKVX NSCLC = test system: EKVX NSCLC
CCRF-CEM leukemia = test system: CCRF-CEM leukemia
SK-MEL-2 melanoma = test system: SK-MEL-2 melanoma
OVCAR-8 ovarian = test system: OVCAR-8 ovarian
HCT-15 colon = test system: HCT-15 colon
HOP-62 NSCLC = test system: HOP-62 NSCLC
U251 CNS = test system: U251 CNS
HS 578T breast = test system: HS 578T breast
HCC-2998 colon = test system: HCC-2998 colon
BT-549 breast = test system: BT-549 breast
A549 NSCLC = test system: A549 NSCLC
NCI-H522 lung = test system: NCI-H522 lung
T-47D breast = test system: T-47D breast
CAKI-1 renal = test system: CAKI-1 renal
ACHN renal = test system: ACHN renal
MOLT-4 leukemia = test system: MOLT-4 leukemia
SF-539 CNS = test system: SF-539 CNS
PC-3 prostate = test system: PC-3 prostate
SF-295 CNS = test system: SF-295 CNS
NCI-H226 lung = test system: NCI-H226 lung
A498 renal = test system: A498 renal
MCF7 breast = test system: MCF7 breast
SK-MEL-5 melanoma = test system: SK-MEL-5 melanoma
HL-60(TB) leukemia = test system: HL-60(TB) leukemia
SR leukemia = test system: SR leukemia
MALME-3M melanoma = test system: MALME-3M melanoma
KM12 colon = test system: KM12 colon
786-0 renal = test system: 786-0 renal
M14 melanoma = test system: M14 melanoma
SW-620 colon = test system: SW-620 colon
HT29 colon = test system: HT29 colon
UACC-257 melanoma = test system: UACC-257 melanoma
DU-145 prostate = test system: DU-145 prostate
SN12C renal = test system: SN12C renal
SK-MEL-28 melanoma = test system: SK-MEL-28 melanoma
OVCAR-5 ovarian = test system: OVCAR-5 ovarian
MDA-MB-231 breast = test system: MDA-MB-231 breast
RPMI-8226 leukemia = test system: RPMI-8226 leukemia
COLO 205 colon = test system: COLO 205 colon
TK-10 renal = test system: TK-10 renal
SNB-75 CNS = test system: SNB-75 CNS
LOX IMVI melanoma = test system: LOX IMVI melanoma
UO-31 renal = test system: UO-31 renal
SNB-19 CNS = test system: SNB-19 CNS
OVCAR-4 ovarian = test system: OVCAR-4 ovarian

COc1cc(/C=C/C(=O)c2ccc(Nc3nc(NCCO)nc(N4CCOCC4)n3)cc2)cc(OC)c1OC
GI50 (NCI-H23 lung): 2.03 µM
TGI (NCI-H23 lung): 5.17 µM
GI50 (NCI-H460 lung): 1.58 µM
TGI (NCI-H460 lung): 3.47 µM
GI50 (UACC-62 melanoma): 1.54 µM
TGI (UACC-62 melanoma): 3.2 µM
GI50 (K-562 leukemia): 0.783 µM
TGI (K-562 leukemia): 7.56 µM
GI50 (HOP-92 NSCLC): 1.61 µM
TGI (HOP-92 NSCLC): 7.4 µM
GI50 (OVCAR-3 ovarian): 1.69 µM
TGI (OVCAR-3 ovarian): 4.26 µM
GI50 (HCT-116 colon): 1.3 µM
TGI (HCT-116 colon): 3 µM
GI50 (SK-OV-3 ovarian): 3.05 µM
TGI (SK-OV-3 ovarian): 27.5 µM
GI50 (RXF 393 renal): 1.46 µM
TGI (RXF 393 renal): 3.23 µM
GI50 (SF-268 CNS): 1.88 µM
TGI (SF-268 CNS): 5.54 µM
GI50 (IGROV1 ovarian): 1.9 µM
TGI (IGROV1 ovarian): 4.59 µM
GI50 (EKVX NSCLC): 2.83 µM
TGI (EKVX NSCLC): > 100 µM
GI50 (CCRF-CEM leukemia): 0.935 µM
TGI (CCRF-CEM leukemia): 3.54 µM
GI50 (SK-MEL-2 melanoma): 1.71 µM
TGI (SK-MEL-2 melanoma): 3.73 µM
GI50 (OVCAR-8 ovarian): 2.2 µM
TGI (OVCAR-8 ovarian): > 100 µM
GI50 (HCT-15 colon): 1.43 µM
TGI (HCT-15 colon): 4.4 µM
GI50 (HOP-62 NSCLC): 2.72 µM
TGI (HOP-62 NSCLC): 7.75 µM
GI50 (U251 CNS): 1.38 µM
TGI (U251 CNS): 2.97 µM
GI50 (HS 578T breast): 1.65 µM
TGI (HS 578T breast): 5.46 µM
GI50 (HCC-2998 colon): 1.8 µM
TGI (HCC-2998 colon): 3.3 µM
GI50 (BT-549 breast): 1.35 µM
TGI (BT-549 breast): 2.86 µM
GI50 (A549 NSCLC): 2.18 µM
TGI (A549 NSCLC): > 100 µM
GI50 (NCI-H522 lung): 1.59 µM
TGI (NCI-H522 lung): 4.11 µM
GI50 (T-47D breast): 1.8 µM
TGI (T-47D breast): 6.68 µM
GI50 (CAKI-1 renal): 2.09 µM
TGI (CAKI-1 renal): 11 µM
GI50 (ACHN renal): 1.95 µM
TGI (ACHN renal): 5.61 µM
GI50 (MOLT-4 leukemia): 1.19 µM
TGI (MOLT-4 leukemia): 4.37 µM
GI50 (SF-539 CNS): 1.63 µM
TGI (SF-539 CNS): 3.16 µM
GI50 (PC-3 prostate): 2.14 µM
TGI (PC-3 prostate): 7.18 µM
GI50 (SF-295 CNS): 3.03 µM
TGI (SF-295 CNS): > 100 µM
GI50 (NCI-H226 lung): 2.15 µM
TGI (NCI-H226 lung): 5.18 µM
GI50 (A498 renal): 1.32 µM
TGI (A498 renal): 5.01 µM
GI50 (MCF7 breast): 1.17 µM
TGI (MCF7 breast): 2.77 µM
GI50 (SK-MEL-5 melanoma): 1.76 µM
TGI (SK-MEL-5 melanoma): 3.28 µM
GI50 (HL-60(TB) leukemia): 1.79 µM
TGI (HL-60(TB) leukemia): 4.78 µM
GI50 (SR leukemia): 0.422 µM
TGI (SR leukemia): 3.22 µM

O=C1Nc2ccccc2/C1=C\c1c(-c2ccccc2)nc2ccccn12
GI50 (NCI-H23 lung): 3.77 µM
TGI (NCI-H23 lung): > 100 µM
GI50 (MALME-3M melanoma): 3.88 µM
TGI (MALME-3M melanoma): > 100 µM
GI50 (NCI-H460 lung): 3.24 µM
TGI (NCI-H460 lung): 12.9 µM
GI50 (UACC-62 melanoma): 3.88 µM
TGI (UACC-62 melanoma): > 100 µM
GI50 (HOP-92 NSCLC): 3.98 µM
TGI (HOP-92 NSCLC): 50.4 µM
GI50 (OVCAR-3 ovarian): 4.26 µM
TGI (OVCAR-3 ovarian): > 100 µM
GI50 (KM12 colon): 2.55 µM
TGI (KM12 colon): > 100 µM
GI50 (HCT-116 colon): 3.61 µM
TGI (HCT-116 colon): 47 µM
GI50 (SK-OV-3 ovarian): 1.95 µM
TGI (SK-OV-3 ovarian): 4.69 µM
GI50 (RXF 393 renal): 2.75 µM
TGI (RXF 393 renal): 12.1 µM
GI50 (SF-268 CNS): 5.23 µM
TGI (SF-268 CNS): > 100 µM
GI50 (IGROV1 ovarian): 2.59 µM
TGI (IGROV1 ovarian): 20.2 µM
GI50 (786-0 renal): 5.98 µM
TGI (786-0 renal): 81.5 µM
GI50 (EKVX NSCLC): 3.1 µM
TGI (EKVX NSCLC): > 100 µM
GI50 (CCRF-CEM leukemia): 2.57 µM
TGI (CCRF-CEM leukemia): > 100 µM
GI50 (M14 melanoma): 2.48 µM
TGI (M14 melanoma): 7.8 µM
GI50 (SK-MEL-2 melanoma): 2.35 µM
TGI (SK-MEL-2 melanoma): 6.97 µM
GI50 (SW-620 colon): 3.02 µM
TGI (SW-620 colon): > 100 µM
GI50 (HT29 colon): 3.05 µM
TGI (HT29 colon): 13.9 µM
GI50 (OVCAR-8 ovarian): 4.9 µM
TGI (OVCAR-8 ovarian): > 100 µM
GI50 (HCT-15 colon): 3.6 µM
TGI (HCT-15 colon): > 100 µM
GI50 (HOP-62 NSCLC): 2.7 µM
TGI (HOP-62 NSCLC): 15.5 µM
GI50 (U251 CNS): 3.97 µM
TGI (U251 CNS): 21 µM
GI50 (HS 578T breast): 9.31 µM
TGI (HS 578T breast): > 100 µM
GI50 (UACC-257 melanoma): 8.96 µM
TGI (UACC-257 melanoma): > 100 µM
GI50 (HCC-2998 colon): 4.56 µM
TGI (HCC-2998 colon): 34.8 µM
GI50 (DU-145 prostate): 4.46 µM
TGI (DU-145 prostate): > 100 µM
GI50 (SN12C renal): 4.91 µM
TGI (SN12C renal): > 100 µM
GI50 (BT-549 breast): 3.97 µM
TGI (BT-549 breast): 50.9 µM
GI50 (A549 NSCLC): 3.9 µM
TGI (A549 NSCLC): 60 µM
GI50 (SK-MEL-28 melanoma): 5.53 µM
TGI (SK-MEL-28 melanoma): > 100 µM
GI50 (NCI-H522 lung): 1.83 µM
TGI (NCI-H522 lung): 7.65 µM
GI50 (OVCAR-5 ovarian): 4.39 µM
TGI (OVCAR-5 ovarian): > 100 µM
GI50 (MDA-MB-231 breast): 7.29 µM
TGI (MDA-MB-231 breast): > 100 µM
GI50 (T-47D breast): 4.4 µM
TGI (T-47D breast): > 100 µM
GI50 (RPMI-8226 leukemia): 2.67 µM
TGI (RPMI-8226 leukemia): 8.56 µM
GI50 (CAKI-1 renal): 2.7 µM
TGI (CAKI-1 renal): > 100 µM
GI50 (ACHN renal): 4.45 µM
TGI (ACHN renal): > 100 µM
GI50 (COLO 205 colon): 2.21 µM
TGI (COLO 205 colon): 5.58 µM
GI50 (MOLT-4 leukemia): 4.2 µM
TGI (MOLT-4 leukemia): > 100 µM
GI50 (TK-10 renal): 5.05 µM
TGI (TK-10 renal): 37.1 µM
GI50 (SF-539 CNS): 3.96 µM
TGI (SF-539 CNS): 18.9 µM
GI50 (SNB-75 CNS): 1.85 µM
TGI (SNB-75 CNS): 6.1 µM
GI50 (PC-3 prostate): 3.14 µM
TGI (PC-3 prostate): > 100 µM
GI50 (LOX IMVI melanoma): 4.34 µM
TGI (LOX IMVI melanoma): > 100 µM
GI50 (NCI-H226 lung): 4.5 µM
TGI (NCI-H226 lung): 57.8 µM
GI50 (A498 renal): 5.87 µM
TGI (A498 renal): > 100 µM
GI50 (MCF7 breast): 3.52 µM
TGI (MCF7 breast): > 100 µM
GI50 (SK-MEL-5 melanoma): 2.83 µM
TGI (SK-MEL-5 melanoma): > 100 µM
GI50 (UO-31 renal): 1.95 µM
TGI (UO-31 renal): > 100 µM
GI50 (SNB-19 CNS): 4.93 µM
TGI (SNB-19 CNS): > 100 µM
GI50 (OVCAR-4 ovarian): 6.21 µM
TGI (OVCAR-4 ovarian): > 100 µM
GI50 (HL-60(TB) leukemia): 2.59 µM
TGI (HL-60(TB) leukemia): 6.47 µM
GI50 (SR leukemia): 0.498 µM
TGI (SR leukemia): > 100 µM
